US20240390490A1, “PHARMACEUTICAL COMPOSITIONS FOR THE TREATMENT OF CANCERS” (Rutgers, The State University of New Jersey, priority 2021, published 2024)

Tests used:
[1] = system: MDA-MB-231, MDA-MB-468, and T47D cells; conditions: read-out: IC50 dose; range over cell lines and time of treatment (24, 48, 72 hours)
Description: Cells in media with vehicle treatment are considered control wells. MTT (3-(4,5-dimethyl-2-thiazolyl)-2,5-diphenyl-2H-tetrazolium bromide) was prepared as a stock solution of 5 mg/mL in 1× phosphate-buffered saline (PBS, pH 7.2). At the end of the drug treatment period (24 or 48 or 72 hours), 10 μL of MTT solution was added to each well. After incubation for 4 hours at 37° C., 100 μL of solubilizing buffer (10% sodium dodecyl sulfate dissolved in 0.01 N HCl) was added to each well. After a 15-minute incubation at 37° C., the 96-well plate was read by a plate reader at 590 nm for absorbance density values to determine the cell viability. The cell viability (percentage of control) is calculated by using the following formula: (OD of treated well (−blank))/(mean OD control well (−blank))×100. […] Drug effects on these cells were determined in quadruplicate wells in three independent experiments.

NK-92 MI cells = experiment: Cytotoxic protein levels in human NK cells (Western blot); type: cell-based; conditions: 50 μM, 12 hours
Description: The human NK cell line NK-92 MI (ATCC) was maintained in alpha minimum essential medium (MEM) without ribonucleosides and deoxyribonucleosides (Gibco) supplemented with final concentrations of 12-5% FBS, 12-5% horse serum (ATCC), 2 mM L-glutamine (Gibco), 1.5 g/L sodium bicarbonate (Gibco), 0.2 mM inositol (Sigma), 0.1 mM 2-mercaptoethanol (Gibco), and 0.02 mM folic acid (Sigma).
For protein analyses, tumor tissues from in vivo experiments, enriched NK cells from the spleen, and NK-92 MI cancer cell co-incubated samples were lysed with a buffer containing protease and phosphatase inhibitors (25 mM Tris-HCl, pH 7.4; 150 mM NaCl; 1% Nonidet P-40; 1 mM EDTA; and 5% glycerol with Pierce Halt Protease Inhibitor). Protein (50 mg) from total lysate was loaded and separated on a 4-20% SDS-PAGE and transferred overnight to polyvinylidene difluoride membranes. Membranes were incubated with primary Ab for 12 hours at 4° C. in blocking buffer, 5% w/v nonfat dry milk in TBS, and 0.1% Tween 20. The following primary antibodies were purchased from Santa Cruz Biotechnology (Santa Cruz, CA): anti-perforin rabbit polyclonal (1:250), anti-granzyme B mouse monoclonal (1:200), anti-IFN-γ mouse monoclonal (1:250), anti-Snail (1:200), anti-Slug (1:200), and anti-Twist. Anti-E-cadherin (1:250), anti-N-cadherin (1:250), and anti-NKG2D goat polyclonal (1:500) were all from Abcam (Cambridge, MA). […]

YAC-1 target cells = experiment: NK cell cytotoxicity of PBMC- and spleen-derived NK cells (calcein AM); type: in vivo, rat
Description: After the end of the drug treatment period, the spleen tissues from control and drug-treated rats were processed, and RBCs and granulocytes were removed from splenocyte suspensions by density centrifugation using Histopaque 1083 (Sigma-Aldrich) as previously described (8). Splenocytes (˜10×10^7 cells per spleen) were extracted from the middle layer, washed with RPMI-1640 (Gibco), and resuspended in buffer (PBS, 0.5% BSA). Splenocytes were incubated with primary Abs conjugated to FITC (BD Biosciences), anti-CD6 (OX52; T cells), anti-CD45RA (OX-33; mature B cells), and anti-RT1B (OX-6; dendritic cells and macrophages), followed by secondary incubation with anti-FITC microbeads, according to the manufacturer's instructions (Miltenyi Biotec). NK cells were then enriched by magnetic separation (negative selection) using an AutoMACS Magnetic Separator (Miltenyi Biotec). The enriched fraction consistently yielded ˜5×10^6 cells per spleen with a purity of ˜80-90%. […] The pelleted cells (PBMC) were counted in a hemocytometer and assayed for viability by trypan blue exclusion. […]
The cytotoxicity of enriched NK cells from PBMC and the spleen against NK-sensitive YAC-1 (ATCC) target cells was determined by calcein AM assays as previously described (8). […] All assays were analyzed and percent cytotoxicity for each sample was calculated as previously described (8).

Structure (SMILES) | IC50 [1] | granzyme B levels (NK-92 MI cells) | perforin levels (NK-92 MI cells) | NK cell cytolytic activity (YAC-1 target cells)
CC1(C)SSC(C)(C)[C@@H](NC(=O)[C@@H](N)Cc2ccc(O)cc2)C(=O)NCC(=O)N[C@@H](Cc2ccccc2)C(=O)N[C@H]1C(=O)O [DPDPE, (D-Pen^2, D-Pen^5)-enkephalin] | 115 to 140 µM |  |  | 
CC(C)NCC(O)COc1cccc2ccccc12 (stereo not shown) [PRO, propranolol] |  | moderately elevated | moderately elevated | elevated
